Reference: ChEMBL document CHEMBL2074272, “Proton-coupled oligopeptide transport by rat renal cortical brush border membrane vesicles: a functional analysis using ACE inhibitors to determine the isoform of the transporter” (Biochim Biophys Acta, 1998)

Key:
[1] = biological target: T1, Solute carrier family 15 member 1 (Rattus norvegicus) (UniProt P51574); assay: TP_TRANSPORTER: uptake in Xenopus laevis oocytes; type: functional, cell-based; settings: Oocyte
T1 sequence (whole entry): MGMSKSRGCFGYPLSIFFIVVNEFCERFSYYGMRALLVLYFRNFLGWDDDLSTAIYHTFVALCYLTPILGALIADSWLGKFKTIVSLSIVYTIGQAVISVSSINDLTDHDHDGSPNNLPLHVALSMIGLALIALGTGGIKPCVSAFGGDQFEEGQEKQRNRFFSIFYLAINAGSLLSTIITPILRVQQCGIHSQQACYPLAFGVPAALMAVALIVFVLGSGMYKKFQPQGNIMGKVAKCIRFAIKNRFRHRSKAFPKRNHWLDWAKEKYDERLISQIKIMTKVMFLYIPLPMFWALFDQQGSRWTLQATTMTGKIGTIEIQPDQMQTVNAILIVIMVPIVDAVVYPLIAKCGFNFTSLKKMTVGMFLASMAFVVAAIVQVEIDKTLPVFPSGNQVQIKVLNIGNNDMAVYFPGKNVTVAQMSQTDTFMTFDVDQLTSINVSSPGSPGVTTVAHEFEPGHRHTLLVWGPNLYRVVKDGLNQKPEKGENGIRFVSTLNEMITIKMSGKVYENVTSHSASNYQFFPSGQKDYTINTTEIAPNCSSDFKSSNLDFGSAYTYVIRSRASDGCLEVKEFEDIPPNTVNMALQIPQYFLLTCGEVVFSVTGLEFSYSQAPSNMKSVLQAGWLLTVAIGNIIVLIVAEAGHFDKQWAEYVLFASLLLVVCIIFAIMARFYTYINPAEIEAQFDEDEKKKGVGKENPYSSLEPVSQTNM

[2] = biological target: T2, Solute carrier family 15 member 1 (Rattus norvegicus, UniProt P51574); assay: TP_TRANSPORTER: inhibition of D-Phe-L-Gln uptake in Xenopus laevis oocytes; type: functional, cell-based, Oocyte
T2 sequence (P51574 whole entry): T1 sequence (whole entry)

Activity [1] | Ki [2] [mM] | Structure (SMILES)
substrate [+] |  | NC(=O)CC[C@H](NC(=O)[C@H](N)Cc1ccccc1)C(=O)O
 | 8.7 | C[C@H](CS)C(=O)N1CCC[C@H]1C(=O)O [CAPTOPRIL]
 | 4.3 | CCOC(=O)[C@H](CCc1ccccc1)N[C@@H](C)C(=O)N1CCC[C@H]1C(=O)O [ENALAPRIL]
